Experimental data taken from patent publication US11285135B2 (AMGEN INC., priority 2016, dated 2022).
Like-named read-outs stand apart in the source and are kept apart here.

Legend:
[1] = target: GDP-bound protein (aa 1-169), containing both G12C and C118A amino acid substitutions (Homo sapiens, UniProt P01116, C118A/G12C); experiment: Coupled Nucleotide Exchange Assay (SOS-mediated nucleotide exchange, AlphaScreen); assay type: biochemical; settings: 2 hours compound pre-incubation
Outline: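 His-tagged GDP-bound […] (aa 1-169, G12C/C118A) pre-incubated 2 h with compound titration in 25 mM HEPES pH 7.4, 10 mM MgCl2, 0.01% Triton X-100.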

[2] = test system: Phosphorylation of ERK½ in MIA PaCa-2 cells; experiment: Phospho-ERK½ MSD Assay in MIA PaCa-2 cells; assay type: cell-based; settings: 4 hours compound treatment, 10 ng/mL EGF for 10 min, read-out: p-ERK IC50 (MIA PaCa-2)
Outline: (§1)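 MIA PaCa-2 or A549 cells (25,000/well, RPMI with 10% FBS) exposed to compound titration for 4 h at 37 °C, then stimulated with 10 ng/mL EGF for 10 min and lysed in RIPA. Phospho-ERK1/2 quantified by MSD whole-cell lysate immunoassay; IC50 from 4-parameter logistic fit.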

[3] = test system: Phosphorylation of ERK½ in A549 cells; experiment: Phospho-ERK½ MSD Assay in A549 cells; assay type: cell-based; settings: 4 hours compound treatment, 10 ng/mL EGF for 10 min, read-out: p-ERK IC50 (A549)
Outline: as §1

[4] = Homo sapiens, MIA PaCa-2, MIA PaCa-2 cells

Chain of GDP-bound protein (aa 1-169), containing both G12C and C118A amino acid substitutions (P01116 1-169 isoform P01116-2 G12C/C118A): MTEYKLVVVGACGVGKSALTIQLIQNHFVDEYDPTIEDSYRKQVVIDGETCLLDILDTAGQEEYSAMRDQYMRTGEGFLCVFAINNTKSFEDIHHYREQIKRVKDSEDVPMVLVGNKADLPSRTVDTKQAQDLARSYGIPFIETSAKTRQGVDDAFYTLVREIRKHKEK

SMILES	Coupled exchange IC50 [1] [µM]	IC50 [2, 4] [µM]	IC50 ([3]; Homo sapiens, A549, A549 cells) [µM]	IC50 ([2]; MIA PaCa-2 cells) [µM]	IC50 ([3]; A549 cells) [µM]	IC50 ([3]; A549 cells, listed as 8-6-7) [µM]
C=CC(=O)N1CCN(c2snc3c(F)c(-c4cc(O)ccc4Cl)c(Cl)cc23)CC1 [Example 3-11, 1-(4-(5-chloro-6-(2-chloro-5-hydroxyphenyl)-7-fluoro-2,1-benzothiazol-3-yl)-1-piperazinyl)-2-propen-1-one]	0.457	3.06	11.1	–	–	–
C=CC(=O)N1CCN(c2snc3c(F)c(-c4cc(O)cc5ccccc45)c(Cl)cc23)C(CO)C1 (racemic) [Example 1-18, 1-(4-(5-chloro-7-fluoro-6-(3-hydroxy-1-naphthalenyl)-2,1-benzothiazol-3-yl)-3-(hydroxymethyl)-1-piperazinyl)-2-propen-1-one]	0.370	0.559	> 33.3	–	–	–
C=CC(=O)N1CCN(c2snc3c(F)c(-c4cc(O)ccc4C)c(Cl)cc23)CC1 [Example 3-8, 1-(4-(5-chloro-7-fluoro-6-(5-hydroxy-2-methylphenyl)-2,1-benzothiazol-3-yl)-1-piperazinyl)-2-propen-1-one]	1.07	7.05	> 100	–	–	–
C=CC(=O)N1CCN(c2snc3c(F)c(-c4c(O)ccc5ccccc45)c(Cl)cc23)CC1 [Example 1-14, 1-(4-(5-chloro-7-fluoro-6-(2-hydroxy-1-naphthalenyl)-2,1-benzothiazol-3-yl)-1-piperazinyl)-2-propen-1-one]	1.78	5.03	> 100	–	–	–
C=CC(=O)N1CCN(c2snc3nc(-c4cc(O)cc5ccccc45)c(Cl)cc23)C(C)C1 (single isomer, unassigned) [Example 2-5-1, 1-((3S)-4-(5-chloro-6-(3-hydroxy-1-naphthalenyl) [1,2]thiazolo[3,4-b]pyridin-3-yl)-3-methyl-1-piperazinyl)-2-propen-1-one or 1-((3R)-4-(5-chloro-6-(3-hydroxy-1-naphthalenyl) [1,2]thiazolo[3,4-b]pyridin-3-yl)-3-methyl-1-piperazinyl)-2-propen-1-one]	0.308	–	–	1.14	> 100	–
C=CC(=O)N1CCN(c2snc3c(F)c(-c4c(C)ccc5[nH]ncc45)c(Cl)cc23)[C@@H](C)C1 [Example 1-10, 1-((3S)-4-(5-chloro-7-fluoro-6-(5-methyl-1H-indazol-4-yl)-2,1-benzothiazol-3-yl)-3-methyl-1-piperazinyl)-2-propen-1-one]	0.381	1.09	11.1	–	–	–
C=CC(=O)N1CCN(c2nnc(-c3ccccc3OC)c3cc(-c4c(O)cccc4F)c(Cl)cc23)CC1 [Example 10-2, 1-(4-(7-chloro-6-(2-fluoro-6-hydroxyphenyl)-4-(2-methoxyphenyl)phthalazin-1-yl)piperazin-1-yl)prop-2-en-1-one]	1.93	36.1	> 100	–	–	–
C=CC(=O)N1CCN(c2nc(=O)n(-c3cccc(C#N)c3)c3cc(-c4c(O)cccc4F)c(Cl)cc23)CC1 [Example 9-5, 3-(6-chloro-7-(2-fluoro-6-hydroxyphenyl)-2-oxo-4-(4-(2-propenoyl)-1-piperazinyl)-1(2H)-quinazolinyl)benzonitrile]	1.33	3.92	> 100	–	–	–
C=CC(=O)N1CCN(c2snc3c(F)c(-c4cc(O)cc5ccccc45)c(Cl)cc23)C(C(=O)OC)C1 (racemic) [Example 7-3, methyl 4-acryloyl-1-(5-chloro-7-fluoro-6-(3-hydroxynaphthalen-1-yl)benzo[c]isothiazol-3-yl)piperazine-2-carboxylate]	1.73	5.83	> 100	–	–	–
C=CC(=O)N1CCN(c2nnc(-c3c(C)cccc3C)c3cc(-c4c(O)cccc4F)c(Cl)cc23)CC1 [Example 10-7, 1-(4-(7-Chloro-4-(2,6-dimethylphenyl)-6-(2-fluoro-6-hydroxyphenyl)-1-phthalazinyl)-1-piperazinyl)-2-propen-1-one]	0.533	9.2	> 100	–	–	–
C=CC(=O)N1CCN(c2nc(=O)n(-c3ccccc3C(C)C)c3nc(-c4c(O)cccc4F)c(Cl)cc23)[C@@H](C)C1 (single isomer, unassigned) [Example 8-6-2]	0.185	–	–	0.128	–	> 100
C=CC(=O)N1CCN(c2snc3nc(-c4c(O)cccc4F)c(Cl)cc23)[C@@H](C)C1 (racemic) [Example 2-3, 1-(4-(5-chloro-6-(2-fluoro-6-hydroxyphenyl)[1,2]thiazo[3,4-b]pyridin-3-yl)-3-methyl-1-piperazinyl)-2-propen-1-one]	4.05	6.53	> 100	–	–	–
C=CC(=O)N1CCN(c2snc3c(F)c(-c4cc(O)cc5ccccc45)c(Cl)cc23)CC1 [Example 3-1, 1-(4-(5-Chloro-7-fluoro-6-(3-hydroxynaphthalen-1-yl)benzo[c]isothiazol-3-yl)piperazin-1-yl)prop-2-en-1-one]	0.266	–	> 100	3.23	–	–
C=CC(=O)N1CCN(c2nc(=O)n(-c3ccccc3C(C)C)c3nc(-c4c(O)cccc4F)c(Cl)cc23)[C@@H](C)C1 (single isomer, unassigned) [Example 8-6-1]	0.066	–	–	0.01	> 33.3	–
C=CC(=O)N(C)C1CN(c2snc3c(F)c(-c4cc(O)cc5ccccc45)c(Cl)cc23)C1 [Example 5-1, N-(1-(5-Chloro-7-fluoro-6-(3-hydroxy-1-naphthalenyl)-2,1-benzothiazol-3-yl)-3-azetidinyl)-N-methyl-2-propenamide]	0.875	2.86	> 100	–	–	–
C=CC(=O)N1CCN(c2snc3c(F)c(-c4cc(O)cc(Cl)c4Cl)c(Cl)cc23)CC1 [Example 3-22, 1-(4-(5-chloro-6-(2,3-dichloro-5-hydroxyphenyl)-7-fluoro-2,1-benzothiazol-3-yl)-1-piperazinyl)-2-propen-1-one]	0.249	1.12	> 33.3	–	–	–
C=CC(=O)N1CCN(c2snc3nc(-c4c(C)ccc5[nH]ncc45)c(Cl)cc23)C(C)C1 (single isomer, unassigned) [Example 2-6-2, 1-((3R)-4-(5-chloro-6-(5-methyl-1H-indazol-4-yl)[1,2]thiazolo[3,4-b]pyridin-3-yl)-3-methyl-1-piperazinyl)-2-propen-1-one or 1-((3S)-4-(5-chloro-6-(5-methyl-1H-indazol-4-yl)[1,2]thiazolo[3,4-b]pyridin-3-yl)-3-methyl-1-piperazinyl)-2-propen-1-one]	1.25	1.29	3.7	–	–	–
C=CC(=O)N1CCN(c2snc3c(F)c(-c4cc(O)cc5ccccc45)c(Cl)cc23)C[C@@H]1C [Example 5-4, 1-((2S)-4-(5-chloro-7-fluoro-6-(3-hydroxy-1-naphthalenyl)-2,1-benzothiazol-3-yl)-2-methyl-1-piperazinyl)-2-propen-1-one]	0.610	3.25	> 100	–	–	–
C=CC(=O)N1CCN(c2nc(=O)n(-c3ccccc3C(C)C)c3nc(-c4c(O)cccc4F)c(Cl)cc23)[C@@H](C)C1 [Example 8-6, 6-chloro-7-(2-fluoro-6-hydroxyphenyl)-4-((2S)-2-methyl-4-(2-propenoyl)-1-piperazinyl)-1-(2-(2-propanyl)phenyl)pyrido[2,3-d]pyrimidin-2(1H)-one]	0.100	–	–	0.012	69.9	–
C=CC(=O)N1CCN(c2snc3c(F)c(-c4c(C)ccc5[nH]ncc45)c(Cl)cc23)[C@H](C(F)F)C1 (racemic) [Example 2-8, 1-(4-(5-chloro-7-fluoro-6-(5-methyl-1H-indazol-4-yl)-2,1-benzothiazol-3-yl)-3-(difluoromethyl)-1-piperazinyl)-2-propen-1-one]	0.361	0.258	> 100	–	–	–
C=CC(=O)N1C[C@@H](C)N(c2snc3c(F)c(-c4cc(O)cc5ccccc45)c(Cl)cc23)[C@H](C)C1 (racemic) [Example 2-7, 1-(4-(5-chloro-7-fluoro-6-(3-hydroxy-1-naphthalenyl)-2,1-benzothiazol-3-yl)-3,5-dimethyl-1-piperazinyl)-2-propen-1-one]	1.08	3.87	> 33.3	–	–	–
C=CC(=O)N1CCN(c2snc3c(F)c(-c4cc(O)cc5ccccc45)c(Cl)cc23)CC1 (single isomer, unassigned) [Example 3-1-2, 1-(4-(5-chloro-7-fluoro-6-(3-hydroxy-1-naphthalenyl)-2,1-benzothiazol-3-yl)-1-piperazinyl)-2-propen-1-one]	0.302	–	–	2.35	> 100	–
